Patent publication US8236860B2, “Inhibition of the survival of pancreatic cancer by cyclohexenone compounds from Antrodia camphorata” (Golden Biotechnology Corporation, priority 2009, dated 2012)

Tested on: pancreatic cancer cell line BxPC-3
Test: In vitro survival assay (MTT) for anti-pancreatic cancer effects
Format: cell-based
Details: Homo sapiens, BxPC-3 cells, 48 hours treatment, 0.03-30 μg/ml, read-out: IC50 (half inhibition concentration), survival of pancreatic cancer cells
Procedure: The compound 4--2,3-dimethoxy-6-methyl-5-(3,7,11-trimethyl-dodeca-2,6,10-trienyl)-cyclohex-2-enone of the formula (2) is explained below as an example for the present invention. The anti-cancer effects of 4--2,3-dimethoxy-6-methyl-5-(3,7,11-trimethyl-dodeca-2,6,10-trienyl)-cyclohex-2-enone was assessed using 3-(4,5-dimethylthiazol-2-yl)-2,5-diphenyltetrazolium bromide MTT) assay according to the anti-cancer drug screening model of National Cancer Institute (NCI) to analyze survival rates on pancreatic cancer cell line BxPC-3. […] Therefore, cyclohexenone compounds from Antrodia camphorata can be used for inhibiting the survival of pancreatic cancer cells and further be applied for the treatment of pancreatic cancer. The details of the examples are described as follows:
Inhibiting effects of pancreatic cancer cells by cyclohexenone compounds of Antrodia camphorata from example 1 were assessed according to the anticancer-drug screening model of National Cancer Institute (NCI). […] Survival of cell was analyzed using MTT assay. […]
The BxPC-3 cells were cultivated in RPMI 1640 medium supplemented with 10% fetal bovine serum, 100 IU/ml of Penicillin and […] of Streptomycin at 37° C., 5% CO2 for 24 hours. […] The absorbances were measured at 570 nm with an ELISA Reader to determine the survival rates.

Compound: COC1=C(OC)C(O)C(C/C=C(\C)CC/C=C(\C)CCC=C(C)C)C(C)C1=O (stereo not shown) [formula 2, 4--2,3-dimethoxy-6-methyl-5-(3,7,11-trimethyl-dodeca-2,6,10-trienyl)-cyclohex-2-enone]
- IC50: 1.44 µg/mL
